From publication PMC9696794, “Synthesis and Antimicrobial Activity of Short Analogues of the Marine Antimicrobial Peptide Turgencin A: Effects of SAR Optimizations, Cys-Cys Cyclization and Lipopeptide Modifications” (International Journal of Molecular Sciences, 2022)
Where a SMILES comes first, the peptide text is derived from it. The star is where a group is joined. Lauroyl = CCCCCCCCCCCC(=O)*; Decanoyl = CCCCCCCCCC(=O)*

Assays:
[1] = tested on: Gram-negative bacterial strains (E. coli and P. aeruginosa); assay: Antibacterial MIC assay, Gram-negative strains together (range or geometric mean); type: cell-based; settings: Table S3; MIC >256 set to 256
Experimental: (§1) All cyclic and linear peptides were screened for antibacterial activity against four Gram-positive strains: B. subtilis (Bs, ATCC 23857), C. glutamicum (Cg, ATCC 13032), S. aureus (Sa, ATCC 9144) and S. epidermidis RP62A (Se, ATCC 35984), and two Gram-negative strains: E. coli (Ec, ATCC 25922) and P. aeruginosa (Pa, ATCC 27853). The activity was assessed using a broth microdilution assay according to a modified CLSI-based method. Briefly, overnight bacterial cultures were grown in Mueller–Hinton (MH) broth medium (Difco Laboratories, Detroit, MI, USA) for 2 h at room temperature. The optical density (OD600) was measured, and the bacterial suspensions were adjusted to 2.5–3 × 10^4 CFU/mL in MH medium. The bacterial suspension (50 µL) was distributed in 96-well plates (Nunc, Roskilde, Denmark) preloaded with two-fold dilution series (256 to 1 µg/mL) of peptide solutions (50 µL), giving a final well volume of 100 µL. The microplates were incubated in an EnVision 2103 microplate reader (PerkinElmer, Llantrisant, UK) at 35 °C, with OD595 recorded every hour for 24 h. MIC was defined as the lowest concentration of peptides showing an optical density less than 10% of the negative (growth) control, consisting of bacterial suspension and water. Polymyxin B sulfate (Sigma-Aldrich, St. Louis, MO, USA) and chlorhexidine acetate (CHX, Fresenius Kabi, Halden, Norway), both with concentrations ranging from 12.5 to 0.09 μg/mL, served as positive (growth inhibition) controls. All peptides were tested in triplicate.

[2] = tested on: B. subtilis (Bs, ATCC 23857); assay: microbe, parasite or virus in culture; type: cell-based, Bacillus subtilis; settings: ATCC 23857, 24 h
Experimental: as §1

[3] = tested on: human red blood cells (RBC); assay: Haemolytic activity assay; type: cell-based; settings: for Selectivity index (SI) G+: EC50/GM of Gram-positive strains; for RBC Tox. (EC50), haemolytic activity: human RBC, 1 h, 37 °C, concentration giving 50% haemolysis
Experimental: The synthetized lipopeptides were screened for haemolytic activity against human red blood cells (RBC), in concentrations ranging from 500 to 3.9 μM, following a previously described protocol. In brief, haemolysis was determined using a heparinizied (10 IU/mL) fraction of freshly drawn human blood. A second fraction of blood, which was collected in test tubes containing ethylenediaminetetraacetic acid (EDTA, Vacutest, KIMA, Arzergrande, Italy), was used for determination of the hematocrit (hct). Plasma was removed from heparinized blood by washing three times with prewarmed phosphate-buffered saline (PBS) before being adjusted to a hematocrit of 4%. Peptides dissolved in dimethyl sulfoxide (DMSO) were further diluted with PBS to a final DMSO content of ≤1%. Triton X-100 (Sigma-Aldrich, St. Louis, MO, USA), used at a final concentration of 0.1%, served as a positive control for 100% haemolysis, whereas 1% DMSO in PBS buffer served as a negative control where no toxicity was detected. Duplicates of test solutions and erythrocytes, with 1% hct final concentration, were prepared in a 96-well polypropylene V-bottom plate (Nunc, Fischer scientific, Oslo, Norway). They were incubated under agitation at 37 °C and 800 rpm for 1 h. After centrifugation (5 min, 3000× g), 100 µL from each well were transferred to a flat-bottomed 96-well plate and absorbance was measured at 545 nm with a microplate reader (SpectraMax 190, Molecular Devices, San Jose, CA, USA). After subtracting PBS background, the percentage of haemolysis was calculated as the ratio of the absorbance in the peptide-treated and surfactant-treated samples. Three independent experiments were performed, and EC50 (the concentration giving 50% haemolysis) values are presented as averages.

[4] = tested on: Gram-positive bacterial strains; settings: Table S3; MIC >256 set to 256
Experimental: as §1

A. pullulans (Ap) = assay: microbe, parasite or virus in culture; type: cell-based, Aurobasidium pollulans; settings: 48 h
Experimental: (§2) The synthesized peptides were screened for antifungal activity against the molds A. pullulans (Ap) and Rhodotorula sp. (Rh) (both obtained from Professor Arne Tronsmo, The Norwegian University of Life Sciences, Ås, Norway) and the yeast C. albicans (Ca, ATCC 10231) as previously described. In short, fungal spores were grown in potato dextrose broth media (Difco) containing 2% D(+)-glucose (Merck, Darmstadt, Germany) at 25–30 °C while shaking at 200 rpm overnight. The cultures were diluted with a dextrose media containing glucose to a concentration of approx. 4 × 10^5 spores/mL. Aliquots of the cultures (50 µL) were transferred to 96 well microtiter plates preloaded with the synthetic peptides (50 µL) in two-fold serial dilutions (256 to 1 µg/mL). Polymyxin B and CHX (both with concentrations ranging from 12.5 to 0.09 μg/mL) served as positive antibiotic controls. The microtiter plates containing the fungal spores and the test peptides were incubated at room temperature for 48 h and OD600 was recorded using a Synergy H1 Hybrid microplate reader system (BioTek, Winooski, VT, USA). MIC was defined as the lowest peptide concentration showing an optical density less than 10% of the negative (growth) control. All experiments were performed in triplicate.

[5] = tested on: C. albicans (Ca, ATCC 10231); assay: microbe, parasite or virus in culture; type: cell-based, Candida albicans; settings: ATCC 10231, 48 h
Experimental: as §2

[6] = tested on: fungi (A. pullulans, C. albicans, Rhodotorula sp.); assay: Antifungal MIC assay, all fungi together (range or geometric mean); type: cell-based; settings: Table S3; MIC >128 set to 128
Experimental: as §2

[7] = tested on: C. glutamicum (Cg, ATCC 13032); assay: microbe, parasite or virus in culture; type: cell-based, Corynebacterium glutamicum; settings: ATCC 13032, 24 h
Experimental: as §1

Rhodotorula sp. (Rh) = assay: microbe, parasite or virus in culture; type: cell-based; settings: 48 h
Experimental: as §2

all bacterial strains = assay: Antibacterial MIC assay, all bacterial strains together (range or geometric mean); type: cell-based; settings: for GM (geometric mean of the MIC values against all bacterial strains): Table 1, six bacterial strains; for GM of MIC Tot. bact.: Table S3, all bacterial test strains, MIC >256 set to 256
Experimental: The selectivity index (SI) of the peptides towards bacteria over eukaryotic cells was calculated using the geometric mean (GM) of the MIC values against all bacterial test strains, according to the method by Orlov et al.. The SI for each peptide was determined as the ratio of the RBC-EC50 value by the corresponding GM value. Larger SI values indicate greater selectivity for microbial cells. […] In general, the SI was higher against the Gram-positive bacteral strains than the Gram-negative strains. (Table S3). Overall, peptides displaying EC50 < 100 µg/mL were considered too haemolytic to be of interest for further exploration.
as §1

[8] = tested on: S. epidermidis RP62A (Se, ATCC 35984); assay: microbe, parasite or virus in culture; type: cell-based, Staphylococcus epidermidis; settings: ATCC 35984, 24 h
Experimental: as §1

[9] = Table S3, highest tested concentration used where EC50 above it

Structure (SMILES): CCCCCCCCCC(=O)N[C@@H](CS)C(=O)NCC(=O)N[C@@H](CCCNC(=N)N)C(=O)N[C@@H](CCCNC(=N)N)C(=O)N[C@@H](Cc1c[nH]c2ccccc12)C(=O)NCC(=O)N[C@@H](Cc1c[nH]c2ccccc12)C(=O)N[C@@H](Cc1c[nH]c2ccccc12)C(=O)N[C@@H](CCCNC(=N)N)C(=O)N[C@@H](CS)C(=O)N[C@@H](CCCNC(=N)N)C(=O)N[C@@H](CC(C)C)C(N)=O [Peptide C10-Turg-6, C10- CGRRWGWWRC RL-NH2] (Decanoyl-CGRRWGWWRCRL-NH2)
- GM of MIC G- [1]: 45 µg/mL
- Antimicrobial Activity (MIC) Gram + Bs [2]: 8 µg/mL
- Selectivity index (SI) G+ [3, 9]: 1
- Selectivity index (SI) Tot. bact. ([3]; Table S3, EC50/GM of all bacterial strains, highest tested concentration used where EC50 above it): 1
- RBC Tox. (EC50), haemolytic activity [3]: 21 µg/mL
- GM of MIC G+ [4]: 16 µg/mL
- Antimicrobial Activity (MIC) Fungi Ap (A. pullulans (Ap)): 128 µg/mL
- Antimicrobial Activity (MIC) Fungi Ca [5]: 64 µg/mL
- GM of MIC Fungi [6]: 102 µg/mL
- Antimicrobial Activity (MIC) Gram + Cg [7]: 16 µg/mL
- Antimicrobial Activity (MIC) Fungi Rh (Rhodotorula sp. (Rh)): 128 µg/mL
- GM (geometric mean of the MIC values against all bacterial strains) (all bacterial strains): 23 µg/mL
- GM of MIC Tot. bact. (all bacterial strains): 23 µg/mL
- Antimicrobial Activity (MIC) Gram + Se [8]: 16 µg/mL

Structure (SMILES): CCCCCCCCCCCC(=O)N[C@@H](CS)C(=O)NCC(=O)N[C@@H](CCCNC(=N)N)C(=O)N[C@@H](CCCNC(=N)N)C(=O)N[C@@H](Cc1c[nH]c2ccccc12)C(=O)NCC(=O)N[C@@H](Cc1c[nH]c2ccccc12)C(=O)N[C@@H](Cc1c[nH]c2ccccc12)C(=O)N[C@@H](CCCNC(=N)N)C(=O)N[C@@H](CS)C(=O)N[C@@H](CCCNC(=N)N)C(=O)N[C@@H](CC(C)C)C(N)=O [Peptide C12-Turg-6, C12- CGRRWGWWRC RL-NH2] (Lauroyl-CGRRWGWWRCRL-NH2)
- Antimicrobial Activity (MIC) Gram + Bs [2]: 16 µg/mL
- Selectivity index (SI) G+ [3, 9]: 2
- SI (selectivity index = EC50/GM) ([3]; haemolytic EC50 over GM of MIC against all bacterial strains, Table 1): 1
- RBC Tox. (EC50), haemolytic activity [3]: 39 µg/mL
- GM of MIC G+ [4]: 19 µg/mL
- Antimicrobial Activity (MIC) Fungi Ap (A. pullulans (Ap)): 128 µg/mL
- Antimicrobial Activity (MIC) Fungi Ca [5]: 64 µg/mL
- Antimicrobial Activity (MIC) Gram + Cg [7]: 16 µg/mL
- Antimicrobial Activity (MIC) Fungi Rh (Rhodotorula sp. (Rh)): >128 µg/mL
- GM (geometric mean of the MIC values against all bacterial strains) (all bacterial strains): 32 µg/mL
- GM of MIC Tot. bact. (all bacterial strains): 32 µg/mL
- Antimicrobial Activity (MIC) Gram + Se [8]: 16 µg/mL
